In ChEMBL document CHEMBL5120845, “Design and synthesis of novel macrolones bridged with linkers from 11,12-positions of macrolides” (Bioorg Med Chem Lett, 2022):
Values after ≈ are worked out from the molar mass of the structure shown.

Tests used:
Streptococcus pneumoniae [1] = assay: Antibacterial activity against Streptococcus pneumoniae 07P390 by microbroth dilution method; type: functional
Streptococcus pyogenes = assay: Antibacterial activity against Streptococcus pyogenes 12-206 by microbroth dilution method; type: functional
[2] = tested on: Mycoplasmoides pneumoniae; assay: Antibacterial activity against erythromycin-resistant Mycoplasma pneumoniae A2059G by microbroth dilution method; type: functional
Streptococcus pneumoniae [3] = assay: Antibacterial activity against Streptococcus pneumoniae PU09 by microbroth dilution method; type: functional
[4] = Stability in rat liver microsomes assessed as unchanged drug level at 1 uM by LC-MS/MS analysis; type: ADME, Microsome; details: time 60 min, read-out: Stability
Haemophilus influenzae = assay: Antibacterial activity against Haemophilus influenzae ATCC 49247 by microbroth dilution method; type: functional
[5] = Intrinsic clearance in human liver microsomes at 1 uM by LC-MS/MS analysis; type: ADME, Microsome; details: read-out: CLH
[6] = tested on: Mycoplasmoides pneumoniae; assay: Antibacterial activity against erythromycin-susceptible Mycoplasma pneumoniae ATCC 29342 by microbroth dilution method; type: functional
[7] = Stability in rat liver microsomes assessed as unchanged drug level at 1 uM after 60 mins by LC-MS/MS analysis; type: ADME, Microsome; details: read-out: Stability
[8] = Half life in human liver microsomes at 1 uM by LC-MS/MS analysis; type: ADME, Microsome
Staphylococcus aureus [9] = assay: Antibacterial activity against Staphylococcus aureus PU32 by microbroth dilution method; type: functional
Staphylococcus aureus [10] = assay: Antibacterial activity against Staphylococcus aureus 15B196 by microbroth dilution method; type: functional
Streptococcus pneumoniae [11] = assay: Antibacterial activity against Streptococcus pneumoniae ATCC 49619 by microbroth dilution method; type: functional
[12] = tested on: Mycoplasmoides pneumoniae; assay: Antibacterial activity against erythromycin-resistant Mycoplasma pneumoniae A2058G by microbroth dilution method; type: functional
[13] = tested on: Mycoplasmoides pneumoniae; assay: Antibacterial activity against erythromycin-resistant Mycoplasma pneumoniae A2058T by microbroth dilution method; type: functional

Row | SMILES | MIC (Streptococcus pneumoniae [1]) [µg/mL] | MIC (Streptococcus pyogenes) [µg/mL] | MIC [2] [µg/mL] | MIC (Streptococcus pneumoniae [3]) [µg/mL] | remaining at 1 h, 1 µM [4] [%] | MIC (Haemophilus influenzae) [µg/mL] | CLint scaled at 1 µM [5] [mL/min/kg] | MIC [6] [µg/mL] | remaining at 1 h, 1 µM [7] [%] | half-life at 1 µM [8] [min] | MIC (Staphylococcus aureus [9]) [µg/mL] | MIC (Staphylococcus aureus [10]) [µg/mL] | MIC (Streptococcus pneumoniae [11]) [µg/mL] | MIC [12] [µg/mL] | MIC [13] [µg/mL]
1 | CC[C@H]1OC(=O)[C@H](C)C(=O)[C@H](C)[C@@H](O[C@@H]2O[C@H](C)C[C@H](N(C)C)[C@H]2O)[C@](C)(OC)C[C@@H](C)C(=O)[C@H](C)[C@H]2N(CCCCn3cnc(-c4cccnc4)c3)C(=O)O[C@]12C [TELITHROMYCIN] | 0.06 (≈ 0.0739 µM) | 0.12 (≈ 0.148 µM) | 256 (≈ 315 µM) | 1 (≈ 1.23 µM) | 93.2 | 4 (≈ 4.93 µM) | 38.4 | 0.008 (≈ 0.00985 µM) | 26.3 | 32.4 | 0.5 (≈ 0.616 µM) | 64 (≈ 78.8 µM) | 0.008 (≈ 0.00985 µM) | 256 (≈ 315 µM) | 256 (≈ 315 µM)
2 | CCOc1ccc2ccc(=O)oc2c1 | – | – | – | – | 0.695 | – | 70.2 | – | 8.69 | 17.8 | – | – | – | – | –
3 | CC[C@H]1OC(=O)[C@H](C)C(=O)[C@H](C)[C@@H](O[C@@H]2O[C@H](C)C[C@H](N(C)C)[C@H]2O)[C@](C)(OC)C[C@@H](C)C(=O)[C@H](C)[C@H]2N(CCCN3CCN(c4cc5c(cc4F)c(=O)c(C(=O)O)cn5C4CC4)CC3)C(=O)O[C@]12C | 0.12 (≈ 0.122 µM) | 1 (≈ 1.02 µM) | 8 (≈ 8.13 µM) | 1 (≈ 1.02 µM) | 95.1 | 8 (≈ 8.13 µM) | 11.3 | 0.008 (≈ 0.00813 µM) | 65 | 110 | 1 (≈ 1.02 µM) | 64 (≈ 65 µM) | 0.016 (≈ 0.0163 µM) | 8 (≈ 8.13 µM) | 8 (≈ 8.13 µM)
4 | CC[C@H]1OC(=O)[C@H](C)C(=O)[C@H](C)[C@@H](O[C@@H]2O[C@H](C)C[C@H](N(C)C)[C@H]2O)[C@](C)(OC)C[C@@H](C)C(=O)[C@H](C)[C@H]2N(CCN3CCN(c4cc5c(cc4F)c(=O)c(C(=O)O)cn5C4CC4)CC3)C(=O)O[C@]12C | 2 (≈ 2.06 µM) | 1 (≈ 1.03 µM) | – | 2 (≈ 2.06 µM) | – | 32 (≈ 33 µM) | – | – | – | – | 4 (≈ 4.12 µM) | 256 (≈ 264 µM) | 0.03 (≈ 0.0309 µM) | – | –
5 | CC[C@H]1OC(=O)[C@H](C)C(=O)[C@H](C)[C@@H](O[C@@H]2O[C@H](C)C[C@H](N(C)C)[C@H]2O)[C@](C)(OC)C[C@@H](C)C(=O)[C@H](C)[C@H]2N(CCCC#Cc3ccc4c(=O)c(C(N)=O)cn(C5CC5)c4c3)C(=O)O[C@]12C | 128 (≈ 141 µM) | 4 (≈ 4.42 µM) | – | 2 (≈ 2.21 µM) | – | 128 (≈ 141 µM) | – | – | – | – | 4 (≈ 4.42 µM) | 512 (≈ 566 µM) | 0.03 (≈ 0.0331 µM) | – | –
6 | CC[C@H]1OC(=O)[C@H](C)[C@@H](O[C@H]2C[C@@](C)(OC)[C@@H](O)[C@H](C)O2)[C@H](C)[C@@H](O[C@@H]2O[C@H](C)C[C@H](N(C)C)[C@H]2O)[C@](C)(OC)C[C@@H](C)C(=O)[C@H](C)[C@@H](O)[C@]1(C)O [CLARITHROMYCIN] | 512 (≈ 685 µM) | 512 (≈ 685 µM) | – | 8 (≈ 10.7 µM) | – | 16 (≈ 21.4 µM) | – | – | – | – | 64 (≈ 85.6 µM) | 512 (≈ 685 µM) | 0.03 (≈ 0.0401 µM) | – | –
7 | CC[C@H]1OC(=O)[C@H](C)C(=O)[C@H](C)[C@@H](O[C@@H]2O[C@H](C)C[C@H](N(C)C)[C@H]2O)[C@](C)(OC)C[C@@H](C)C(=O)[C@H](C)[C@H]2N(CCCCC#Cc3ccc4c(=O)c(C(=O)O)cn(C5CC5)c4c3)C(=O)O[C@]12C | 8 (≈ 8.69 µM) | 2 (≈ 2.17 µM) | – | 2 (≈ 2.17 µM) | – | 32 (≈ 34.8 µM) | – | – | – | – | 2 (≈ 2.17 µM) | 256 (≈ 278 µM) | 0.016 (≈ 0.0174 µM) | – | –
8 | CC[C@H]1OC(=O)[C@H](C)C(=O)[C@H](C)[C@@H](O[C@@H]2O[C@H](C)C[C@H](N(C)C)[C@H]2O)[C@](C)(OC)C[C@@H](C)C(=O)[C@H](C)[C@H]2N(CCCCc3ccc4c(=O)c(C(N)=O)cn(C5CC5)c4c3)C(=O)O[C@]12C | 32 (≈ 35.8 µM) | 4 (≈ 4.47 µM) | – | 0.25 (≈ 0.279 µM) | – | 32 (≈ 35.8 µM) | – | – | – | – | 1 (≈ 1.12 µM) | 512 (≈ 572 µM) | 0.03 (≈ 0.0335 µM) | – | –
9 | CC[C@H]1OC(=O)[C@H](C)C(=O)[C@H](C)[C@@H](O[C@@H]2O[C@H](C)C[C@H](N(C)C)[C@H]2O)[C@](C)(OC)C[C@@H](C)C(=O)[C@H](C)[C@H]2N(CCC#Cc3ccc4c(=O)c(C(=O)O)cn(C5CC5)c4c3)C(=O)O[C@]12C | 2 (≈ 2.24 µM) | 1 (≈ 1.12 µM) | – | 0.5 (≈ 0.561 µM) | – | 4 (≈ 4.48 µM) | – | – | – | – | 0.25 (≈ 0.28 µM) | 16 (≈ 17.9 µM) | 0.016 (≈ 0.0179 µM) | – | –
10 | CC[C@H]1OC(=O)[C@H](C)C(=O)[C@H](C)[C@@H](O[C@@H]2O[C@H](C)C[C@H](N(C)C)[C@H]2O)[C@](C)(OC)C[C@@H](C)C(=O)[C@H](C)[C@H]2N(CCC#Cc3ccc4c(c3)c(=O)c(C(N)=O)cn4C3CC3)C(=O)O[C@]12C | 8 (≈ 8.98 µM) | 1 (≈ 1.12 µM) | – | 1 (≈ 1.12 µM) | – | 16 (≈ 18 µM) | – | – | – | – | 1 (≈ 1.12 µM) | 32 (≈ 35.9 µM) | ≤ 0.008 | – | –
11 | CC[C@H]1OC(=O)[C@H](C)C(=O)[C@H](C)[C@@H](O[C@@H]2O[C@H](C)C[C@H](N(C)C)[C@H]2O)[C@](C)(OC)C[C@@H](C)C(=O)[C@H](C)[C@H]2N(CCCCCC#Cc3ccc4c(c3)c(=O)c(C(=O)O)cn4C3CC3)C(=O)O[C@]12C | 32 (≈ 34.3 µM) | 2 (≈ 2.14 µM) | – | 1 (≈ 1.07 µM) | – | 32 (≈ 34.3 µM) | – | – | – | – | 8 (≈ 8.56 µM) | 128 (≈ 137 µM) | ≤ 0.008 | – | –
12 | CC[C@H]1OC(=O)[C@H](C)C(=O)[C@H](C)[C@@H](O[C@@H]2O[C@H](C)C[C@H](N(C)C)[C@H]2O)[C@](C)(OC)C[C@@H](C)C(=O)[C@H](C)[C@H]2N(CCCCCCC#Cc3ccc4c(=O)c(C(=O)O)cn(C5CC5)c4c3)C(=O)O[C@]12C | 8 (≈ 8.44 µM) | 1 (≈ 1.05 µM) | – | 1 (≈ 1.05 µM) | – | 16 (≈ 16.9 µM) | – | – | – | – | 4 (≈ 4.22 µM) | 32 (≈ 33.7 µM) | ≤ 0.008 | – | –
13 | CC[C@H]1OC(=O)[C@H](C)C(=O)[C@H](C)[C@@H](O[C@@H]2O[C@H](C)C[C@H](N(C)C)[C@H]2O)[C@](C)(OC)C[C@@H](C)C(=O)[C@H](C)[C@H]2N(CCCCc3ccc4c(=O)c(C(=O)O)cn(C5CC5)c4c3)C(=O)O[C@]12C | 2 (≈ 2.23 µM) | 0.25 (≈ 0.279 µM) | 32 (≈ 35.7 µM) | 0.5 (≈ 0.558 µM) | 100 | 4 (≈ 4.46 µM) | 31.9 | 0.008 (≈ 0.00893 µM) | 35.1 | 39.1 | 1 (≈ 1.12 µM) | 8 (≈ 8.93 µM) | ≤ 0.008 | 32 (≈ 35.7 µM) | 16 (≈ 17.9 µM)
14 | CC[C@H]1OC(=O)[C@H](C)C(=O)[C@H](C)[C@@H](O[C@@H]2O[C@H](C)C[C@H](N(C)C)[C@H]2O)[C@](C)(OC)C[C@@H](C)C(=O)[C@H](C)[C@H]2N(CCCCCC#Cc3ccc4c(c3)c(=O)c(C(N)=O)cn4C3CC3)C(=O)O[C@]12C | 4 (≈ 4.29 µM) | 2 (≈ 2.14 µM) | – | 1 (≈ 1.07 µM) | – | 64 (≈ 68.6 µM) | – | – | – | – | 8 (≈ 8.57 µM) | 128 (≈ 137 µM) | 0.016 (≈ 0.0171 µM) | – | –
15 | CC[C@H]1OC(=O)[C@H](C)C(=O)[C@H](C)[C@@H](O[C@@H]2O[C@H](C)C[C@H](N(C)C)[C@H]2O)[C@](C)(OC)C[C@@H](C)C(=O)[C@H](C)[C@H]2N(CCN3CCN(c4c(F)cc5c(=O)c(C(=O)O)cn(C6CC6)c5c4OC)CC3)C(=O)O[C@]12C | 2 (≈ 2 µM) | 8 (≈ 8 µM) | – | 2 (≈ 2 µM) | – | 32 (≈ 32 µM) | – | – | – | – | 8 (≈ 8 µM) | 32 (≈ 32 µM) | 0.25 (≈ 0.25 µM) | – | –
16 | CC[C@H]1OC(=O)[C@H](C)C(=O)[C@H](C)[C@@H](O[C@@H]2O[C@H](C)C[C@H](N(C)C)[C@H]2O)[C@](C)(OC)C[C@@H](C)C(=O)[C@H](C)[C@H]2N(CCC#Cc3ccc4c(c3)c(=O)c(C(=O)O)cn4C3CC3)C(=O)O[C@]12C | 256 (≈ 287 µM) | 4 (≈ 4.48 µM) | – | 1 (≈ 1.12 µM) | – | 32 (≈ 35.9 µM) | – | – | – | – | 2 (≈ 2.24 µM) | 512 (≈ 574 µM) | 0.06 (≈ 0.0673 µM) | – | –
17 | CC[C@H]1OC(=O)[C@H](C)C(=O)[C@H](C)[C@@H](O[C@@H]2O[C@H](C)C[C@H](N(C)C)[C@H]2O)[C@](C)(OC)C[C@@H](C)C(=O)[C@H](C)[C@H]2N(CCCC#Cc3ccc4c(=O)c(C(=O)O)cn(C5CC5)c4c3)C(=O)O[C@]12C | 2 (≈ 2.21 µM) | 2 (≈ 2.21 µM) | – | 1 (≈ 1.1 µM) | – | 32 (≈ 35.3 µM) | – | – | – | – | 4 (≈ 4.41 µM) | 256 (≈ 283 µM) | 0.03 (≈ 0.0331 µM) | – | –
18 | CC[C@H]1OC(=O)[C@H](C)C(=O)[C@H](C)[C@@H](O[C@@H]2O[C@H](C)C[C@H](N(C)C)[C@H]2O)[C@](C)(OC)C[C@@H](C)C(=O)[C@H](C)[C@H]2N(CCC#Cc3ccc4c(=O)c(C(N)=O)cn(C5CC5)c4c3)C(=O)O[C@]12C | 128 (≈ 144 µM) | 32 (≈ 35.9 µM) | – | 0.12 (≈ 0.135 µM) | – | 128 (≈ 144 µM) | – | – | – | – | 1 (≈ 1.12 µM) | 512 (≈ 575 µM) | 0.06 (≈ 0.0673 µM) | – | –
